Source: patent US8829014B2, “Thiazole and thiophene analogues, and their use in treating autoimmune diseases and cancers” (Board of Supervisors of Louisiana State University and …, priority 2006, dated 2014)
Where two headings read alike, the source gives them in different places.

Key:
carageenan-induced edema = experiment: Carrageenan-induced rat paw edema test (anti-inflammatory activity); type: in vivo, Sprague-Dawley rats; set-up: % Protection: concentration or dose not given beside the values; details: carrageenan-induced rat paw edema, defined in Example 397; for inhibition in vivo at 50 mg/kg: po, 3 h, read-out: % Protection
Outline: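 Sprague-Dawley rats (male and female, 150-250 g), fasted 18 h, given compound orally at 50 mg/kg in 0.1% sodium CMC (alternatively i.v., s.c. or i.p.). 1% carrageenan injected sub-plantar in right hind paw 1 h later. Paw displacement read again 3 h later; % protection = [(Control−Test)/Control]×100 versus saline control.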

AP-1 = AP-1 inhibitor screen: basal AP-1-dependent luciferase expression in HEK/AP-1 cell line; type: cell-based; details: for inhibition at 1 µM: AP1; for inhibition at 1 µM / AP-1 inhibition @ 1 uM: determined as described in Example 398
Source text: (§1) Development of NF-κB and AP-1 Screens: Two HEK293 cell lines were purchased from Panomics. One cell line was stably transfected with a plasmid in which luciferase expression is regulated by six copies of the NF-κB transcriptional element (5′-[…]-3′); and the other cell line was stably transfected with a plasmid in which luciferase expression is regulated by three copies of the AP-1 transcriptional element (TGACTAA). To test the biological activity of the promoters, the HEK/NF-κB cell line was stimulated with TNF-α (20 ng/ml) for 24 hours, and the HEK/AP-1 cell line was stimulated with PMA (10 ng/ml) for 24 hours.
HEK cells were stably transfected with a plasmid expressing luciferase under the control of the AP-1 promoter. The transfected cells were plated on a 96-well plate for 24 hr. Then 1.0 μM of each compound in DMSO (0.3%) was added to triplicate wells and incubated for 48 hr. DMSO (0.3%) was added to one set of triplicate wells as a control. Luciferase activity was determined using Promega's Brite-Glo kit, and the mean for each sample was normalized to that for DMSO.
Screening was carried out as described above, monitoring the compounds' effects on basal AP-1-dependent luciferase expression. Each dose-response experiment was carried out in triplicate and repeated between two and four times.

NF-κB = NF-κB inhibitor screen: basal NF-κB-dependent luciferase expression in HEK/NF-κB cell line; type: cell-based; details: for inhibition at 1 µM / NFkB inhibition @ 1 uM: determined as described in Example 398; for inhibition at 1 µM: read-out: NFkB inhibition @ 1 uM
Source text: as §1, with “hours. […] In addition, a pyrimidine carboxyimide that had previously been shown (ref. 58) to be an inhibitor of transcription mediated by NF-κB and AP-1 reduced luciferase activity by approximately 40% in each of the NF-κB and AP-1 cell lines.” for “hours.”
The above two assays analyzed the effects of the compounds on post-transcriptional gene regulation, which is known to play a key role in cancer and inflammation. By contrast, the NF-κB assay and the following assay (AP-1) test whether the compounds act at the transcriptional level. Thirty-nine representative compounds were screened in an HEK/NF-κB cell line. HEK cells were stably transfected with a plasmid expressing luciferase under the control of the NF-κB promoter. These transfected cells were plated on a 96-well plate. As above, initial screening was carried out at 1.0 μM by adding compound in DMSO (0.3%) twenty-four hours after plating. Each compound was added to each of triplicate wells. DMSO (0.3%) was added to one set of wells as a control. Luciferase activity was determined using Promega's Brite-Glo kit, and the mean for each sample was normalized to that for DMSO.
The fourteen representative compounds identified in the eIF4E screen as interesting (Numbered 2, 3, 4, 6, 8, 11, 15, 20, 21, 24, 25, 32, 33, and 35) were then tested for luciferase activity in a six-point dose response (10 nM, 33 nM, 100 nM, 330 nM, 1000 nM, and 3300 nM). Screening was carried out as described above by monitoring the effects of the compounds on basal NF-κB-dependent luciferase expression. Each dose was used out in triplicate, and repeated between two and four times. Results were normalized by the average expression level at the lowest concentration level, as described above.

Compound	inhibition in vivo at 50 mg/kg (carageenan-induced edema; Rattus norvegicus) [%]	inhibition at 1 µM (AP-1) [%]	inhibition at 1 µM (NF-κB) [%]	also measured
O=c1c2ccccc2nc(-c2sc(Nc3ccccc3)nc2-c2ccccc2)n1-c1ccc(Cl)cc1 [Example 252, 3-(4-Chloro-phenyl)-2-(4-phenyl-2-phenylamino-thiazol-5-yl)-3H-quinazolin-4-one]	81	21	80	
COC(=O)Nc1nc(C)c(-c2nc3ccccc3c(=O)n2-c2ccccc2)s1 [Example 155, (4-Methyl-5-(4-oxo-3-phenyl-3,4-dihydro-quinazolin-2-yl)-thiazol-2-yl)-carbamic acid methyl ester]	0	-1	24	
CCOC(=O)Nc1nc(-c2ccccc2)c(-c2nc3ccccc3c(=O)n2-c2ccc(C(C)=O)cc2)s1 [Example 264, [5-(4-Oxo-3-(4-acetyl-phenyl)-3,4-dihydro-quinazolin-2-yl)-4-phenyl-thiazol-2-yl]-carbamic acid ethyl ester]	40	25	25	
CNc1nc(C)c(-c2nc3ccccc3c(=O)n2-c2ccccc2C)s1 [Example 168]				% Protection (carageenan-induced edema): 35%; AP-1 inhibition @ 1 uM (AP-1): 67; NFkB inhibition @ 1 uM (NF-κB): 16
Cc1ccc(-n2c(-c3sc(Nc4ccc(Cl)cc4)nc3-c3ccccc3)nc3ccccc3c2=O)cc1 [Example 200, 2-[2-(4-Chloro-phenylamino)-4-phenyl-thiazol-5-yl]-3-p-tolyl-3H-quinazolin-4-one]	56	2	-16	
COc1ccc(-n2c(-c3sc(Nc4ccc(Cl)cc4)nc3C)nc3ccccc3c2=O)cc1 [Example 217, 2-[2-(4-Chlorophenylamino)-4-methyl-thiazol-5-yl]-3-(4-methoxyphenyl)-3H-quinazolin-4-one]	50	-43	-38	
O=c1c2ccccc2nc(-c2sc(Nc3ccccc3)nc2-c2ccccc2)n1-c1ccccc1 [Example 161, 3-Phenyl-2-(4-phenyl-2-phenylamino-thiazol-5-yl)-3H-quinazolin-4-one]	60	7	80	
CNc1nc(-c2ccccc2)c(-c2nc3ccccc3c(=O)n2-c2ccccc2OC)s1 [Example 205, 2-(2-Methylamino-4-phenyl-thiazol-5-yl)-3-(2-methoxyphenyl)-3H-quinazolin-4-one]	56	90	61	
O=c1c2ccccc2nc(-c2sc(Nc3ccc(Cl)cc3)nc2-c2ccccc2)n1-c1ccc(Cl)cc1 [Example 256, 2-[2-(4-Chloro-phenylamino)-4-phenyl-thiazol-5-yl]-3-(4-Chloro-phenyl)-3H-quinazolin-4-one]	84	61	99	
Cc1nc(Nc2ccc(Cl)cc2)sc1-c1nc2ccccc2c(=O)n1-c1ccc(Cl)cc1 [Example 246, 2-[2-(4-Chlorophenylamino)-4-methyl-thiazol-5-yl]-3-(4-chloro-phenyl)-3H-quinazolin-4-one]		74	96	inhibition in vivo at 50 mg/kg (carageenan-induced edema): 38%; inhibition of basal NF-κB-dependent luciferase expression (NF-κB; 3.3 μM (FIG. 12)): about 50%
Cc1ccc(C(=O)Nc2nc(-c3ccccc3)c(-c3nc4ccccc4c(=O)n3-c3ccccc3)s2)cc1 [Example 163, 4-Methyl-N-[5-(4-oxo-3-phenyl-3,4-dihydroquinazolin-2-yl)-4-phenyl-thiazol-2-yl]-benzamide]	77	68	88	
COC(=O)Nc1nc(-c2ccccc2)c(-c2nc3ccccc3c(=O)n2-c2ccc(Cl)cc2)s1 [Example 250, [5-(4-Oxo-3-(4-Chloro-phenyl)-3,4-dihydro-quinazolin-2-yl)-4-phenyl-thiazol-2-yl]-carbamic acid methyl ester]	83	5	17	
Cc1ccc(-n2c(-c3sc(Nc4ccc(Cl)cc4)nc3C)nc3ccccc3c2=O)cc1 [Example 192, 2-[2-(4-Chlorophenylamino)-4-methyl-thiazol-5-yl]-3-p-tolyl-3H-quinazolin-4-one]	37	2	12	
CC(=O)c1ccc(-n2c(-c3sc(Nc4ccc(Cl)cc4)nc3-c3ccccc3)nc3ccccc3c2=O)cc1 [Example 271, 2-[2-(4-Chlorophenylamino)-4-phenyl-thiazol-5-yl]-3-(4-acetyl-phenyl)-3H-quinazolin-4-one]	23	31	-12	
CNc1nc(C)c(-c2nc3ccccc3c(=O)n2-c2ccc(C(C)=O)cc2)s1 [Example 261, 2-(4-Methyl-2-methylamino-thiazol-5-yl)-3-(4-acetyl-phenyl)-3H-quinazolin-4-one]	42	-33	71	
COc1ccc(-n2c(-c3sc(Nc4ccccc4)nc3-c3ccccc3)nc3ccccc3c2=O)cc1 [Example 221, 3-(4-Methoxyphenyl)-2-(4-phenyl-2-phenylamino-thiazol-5-yl)-3H-quinazolin-4-one]	85	18	79	
O=C(Nc1nc(-c2ccccc2)c(-c2nc3ccccc3c(=O)n2-c2ccccc2)s1)c1ccccc1 [Example 162]				% Protection (carageenan-induced edema): 87%; AP-1 inhibition @ 1 uM (AP-1): 17; NFkB inhibition @ 1 uM (NF-κB): 58
Cc1nc(Nc2ccccc2)sc1-c1nc2ccccc2c(=O)n1-c1ccc(Cl)cc1 [Example 245, 2-(4-Methyl-2-phenylamino-thiazol-5-yl)-3-(4-chloro-phenyl)-3H-quinazolin-4-one]	72	82	79	
COc1ccc(-n2c(-c3sc(NC(=O)c4ccccc4)nc3-c3ccccc3)nc3ccccc3c2=O)cc1 [Example 222, N-[5-(4-Oxo-3-(4-methoxyphenyl)-3,4-dihydro-quinazolin-2-yl)-4-phenyl-thiazole-2-yl]benzamide]	24	0	15	
{5-[3-(4-Methoxy-phenyl)-4-oxo-3,4-dihydro-quinazolin-yl]-thiazol-2-yl}-carbamic acid ethyl ester [Example 215]				% Protection (carageenan-induced edema): 25%; AP-1 inhibition @ 1 uM (AP-1): −6; NFkB inhibition @ 1 uM (NF-κB): 34
2-[2-(1-Furan-2-yl-vinylamino)-4-phenyl-thiazol-5-yl]-3-(4-methoxyphenyl)-3H-quinazolin-4-one [Example 224]				% Protection (carageenan-induced edema): 79%; AP-1 inhibition @ 1 uM (AP-1): 2; NFkB inhibition @ 1 uM (NF-κB): −24
O=c1c2ccccc2nc(-c2sc(Nc3ccc(Cl)cc3)nc2-c2ccccc2)n1-c1ccccc1 [Example 165, 2-[2-(4-Chloro-phenylamino)-4-phenyl-thiazol-5-yl]-3-phenyl-3H-quinazolin-4-one]	87	27	-47	basal AP-1-dependent luciferase, six-point dose response (AP-1; 10 nM-3300 nM (FIG. 14)): substantial activity at submicromolar concentrations
